# Laboratory results: article PMC4849433, “Phloem Proteomics Reveals New Lipid-Binding Proteins with a Putative Role in Lipid-Mediated Signaling” (Frontiers in Plant Science, 2016)
# How the values were obtained:
# Experiment in all cases: liposome co-sedimentation with anti-His Western blot; protein-lipid overlay
# Format in all cases: binding
# GDSL-lipase = target: T1, GDSL-lipase (Arabidopsis thaliana, UniProt Q9C7N5); conditions: pH 7.0, 0.1 M NaCl, 30 °C, 30 min; 10 μg protein; lipid in liposomes
# T1 construct: gene At1g29660; 26-residue predicted signal peptide removed; pET15b His tag; E. coli BL21(DE3)pLysS; Ni-NTA purified
# T1 sequence (Q9C7N5 27-364): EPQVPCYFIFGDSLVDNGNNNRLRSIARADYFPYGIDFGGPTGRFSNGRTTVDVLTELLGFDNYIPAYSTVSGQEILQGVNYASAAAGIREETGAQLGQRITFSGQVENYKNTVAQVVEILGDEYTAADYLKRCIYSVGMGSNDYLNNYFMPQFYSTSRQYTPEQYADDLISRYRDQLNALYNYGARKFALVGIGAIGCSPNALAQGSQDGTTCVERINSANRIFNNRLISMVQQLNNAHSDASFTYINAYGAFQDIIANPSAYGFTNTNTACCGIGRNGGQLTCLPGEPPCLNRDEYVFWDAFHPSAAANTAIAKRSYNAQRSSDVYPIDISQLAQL
# PIG-P-like protein = target: T2, PIG-P-like protein (Arabidopsis thaliana, UniProt A0A1P8B1E2); conditions: pH 7.0, 0.1 M NaCl, 30 °C, 30 min; 1 μg protein; lipid in liposomes
# T2 construct: gene TRM18; coding region, no signal peptide; pET15b His tag; E. coli BL21(DE3)pLysS; Ni-NTA purified; 50 kDa
# T2 sequence (A0A1P8B1E2 1-464): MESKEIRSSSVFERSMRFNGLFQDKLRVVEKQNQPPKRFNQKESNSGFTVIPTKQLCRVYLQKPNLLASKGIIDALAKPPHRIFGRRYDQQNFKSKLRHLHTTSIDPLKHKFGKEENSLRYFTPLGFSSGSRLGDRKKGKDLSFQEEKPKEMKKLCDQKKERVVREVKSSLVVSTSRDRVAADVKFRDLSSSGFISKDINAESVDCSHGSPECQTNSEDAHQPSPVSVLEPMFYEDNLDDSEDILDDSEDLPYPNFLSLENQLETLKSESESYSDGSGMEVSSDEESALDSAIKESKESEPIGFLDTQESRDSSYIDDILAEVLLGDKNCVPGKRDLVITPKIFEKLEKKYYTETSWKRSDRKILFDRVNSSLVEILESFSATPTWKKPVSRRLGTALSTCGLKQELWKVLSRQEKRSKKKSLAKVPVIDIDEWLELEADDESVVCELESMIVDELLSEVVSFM
# [1] = target: T3, PLAFP (phloem lipid-associated family protein) (Arabidopsis thaliana, UniProt O65660); conditions: pH 7.0, 0.1 M NaCl, 30 °C, 30 min; 1 μg protein; PtdOH mixed into PtdCho liposomes; figure modified from Benning et al. 2012 (same laboratory)
# T3 construct: gene PLAT1; 23-residue predicted signal peptide removed; pET15b His tag; E. coli OrigamiB(DE3)pLysS; HisLink purified
# T3 sequence (O65660 24-181): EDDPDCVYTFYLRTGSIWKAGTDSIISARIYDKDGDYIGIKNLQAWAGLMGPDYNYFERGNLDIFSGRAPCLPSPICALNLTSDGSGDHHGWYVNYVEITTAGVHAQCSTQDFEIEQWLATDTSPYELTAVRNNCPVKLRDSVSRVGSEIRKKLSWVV
structure (smiles),measurement,setting,value
CCCCCCCC/C=C\CCCCCCCC(=O)OC[C@H](COP(=O)(O)O)OC(=O)CCCCCCC/C=C\CCCCCCCC [PtdOH],liposome co-sedimentation with anti-His Western blot; protein-lipid overlay,GDSL-lipase,the GDSL-lipase does associate with PtdOH-containing liposomes (Figure 1G)
same,liposome co-sedimentation with anti-His Western blot; protein-lipid overlay,PIG-P-like protein,PIG-P binds to liposomes containing PtdOH or PtdSer
same,liposome co-sedimentation with anti-His Western blot; protein-lipid overlay,[1],"when PtdOH was included in the liposome, PLAFP bound"
